Paper PMC9356275, “A quantitative high-throughput screen identifies compounds that lower expression of the SCA2-and ALS-associated gene ATXN2” (The Journal of Biological Chemistry, 2022)
pIC50: −log10 of the molar value. Where a name gives a salt, the structure may show the parent alone. Read-outs that look alike come from different tables or passages of the source.

How the values were obtained:
Assay type in all cases: cell-based, human
ATXN2-luc [1] = assay: NCATS qHTS (LOPAC pilot, primary and confirmation): ATXN2-luc in S2 cells, 1536-well, Steady-Glo; settings: for Curve Class: LOPAC library (1,280 compounds) screening optimization, signed sub-classes (-1.1, -2.2, -3 ...); for Efficacy / Hill Coef / Inf Activity / Zero Activity / Log AC50 / AC50 / Max Resp: LOPAC library screening optimization; for Efficacy / Hill Coef / Inf Activity / Zero Activity: curve-fit parameter; for Max Resp: response at highest tested concentration
Procedure: We next performed a pilot screen assay to optimize the 1536-well qHTS using S2 cells. […] Cytotoxicity was determined using a multiplexed viability assay (CellTiter-Fluor, a fluorescence-based viability assay using Gly-Phe-7-amino-4-trifluoromethylcoumarin substrate).
CellTiter-Fluor was used to determine compound effect on cell viability, and Steady-Glo was used to measure luciferase in a multiplexed assay.
The primary assay was conducted at the NCATS NIH Chemical Genomics Center laboratory. About 4 μl of S2 cell suspension in phenol red–free DMEM was dispensed into wells of 1536-well assay plates. […] Next, SteadyGlo luciferase substrate detection reagent (3 μl) was added to each well and incubated for an additional 5 min at room temperature. Luminescence was then measured on the ViewLux imager equipped with clear filters using a 2 s exposure. All screening operations were performed on a fully integrated robotic system (Kalypsys) containing one RX-130 and two RX-90 anthropomorphic robotic arms (Stäubli). Vehicle-only plates, with DMSO being pin-transferred to columns 5 to 48, were inserted uniformly at the beginning and the end of each library in order to monitor and record any shifts in assay performance.

ATXN2-luc [2] = assay: MSSR pilot screen: ATXN2-luc luciferase assay (Bright-Glo) in H2 cells, single 10 μM dose; settings: H2 cells, single dose (title: 10 μM compound), overnight
ATXN2-luc [3] = assay: Secondary assays: ATXN2-luc in S2 and H2 cells, 12 doses, Bright-Glo; settings: Homo sapiens; H2 and S2 values used as replicates, 24 h; read-out: IC50 for lowering ATXN2-luc
Procedure: The values for H2 and S2 were used as replicates to calculate IC50s and to assess cell viability.
Compounds were plated at 2× concentrations in phenol red–free DMEM in 25 μl in 384-well plates with each compound dose plated in triplicate. An equal volume of S2, H2, or SC cells (24,000 cells/well) suspended in phenol red–free DMEM with 10% fetal bovine serum and 1× penicillin/streptomycin were added. Cells were grown 24 h and then assayed first by using the CellTiter-Fluor reagent (20 μl) followed by the addition of Bright-Glo (65 μl) luciferase assay, using a multimode plate reader (Beckman; DT880). Values were reported as the mean ± SD with n = 3. IC50s were determined by the Hill coefficient method using an online tool (https://www.aatbio.com/tools/ic50-calculator).

[4] = logarithm of AC50 (negative values)
[5] = Homo sapiens, logarithm of AC50 (negative values), read-out: Log AC50 (converted)

Compound | Curve Class (ATXN2-luc [1]) | Efficacy (ATXN2-luc [1]) | Hill Coef (ATXN2-luc [1]) | Inf Activity (ATXN2-luc [1]) | Zero Activity (ATXN2-luc [1]) | Log AC50 (ATXN2-luc [1]; [4]) | AC50 (ATXN2-luc [1]; read-out: AC50) [µM] | Max Resp (ATXN2-luc [1]) | AC50 (ATXN2-luc [1]; [5]) [µM] | AC50 (ATXN2-luc [1]; Homo sapiens, read-out: AC50) [µM] | SD from mean (ATXN2-luc, Z-score) (ATXN2-luc [2]) [SD] | pIC50 (ATXN2-luc [3])
CNCC[C@H](Oc1ccc(C(F)(F)F)cc1)c1ccccc1.Cl [MLS002153300-01] | -2.2 | -72.8775 | 2.1211 | -81.66 | -8.7824 | -4.45 | 35.5 | -62.2424 | – | – | – | –
Nc1ncnc2c1c(I)cn2[C@@H]1C[C@H](N)[C@@H](O)[C@H]1O [A-134974 dihydrochloride hydrate] | -2.1 | – | – | – | – | -4.9 | 12.6 | – | 10 | 10 | – | –
CNCCC(Oc1ccc(C(F)(F)F)cc1)c1ccccc1.Cl (stereo not shown) [MLS001076338-01] | -3 | -91.3933 | 3.5722 | -89.6057 | 1.7876 | -4.6 | 25.1 | -84.8539 | – | – | – | –
c1ccc(CN2CCC3(CCCc4ccccc43)CC2)cc1 [L-687,384 hydrochloride] | -2.2 | -56.3105 | – | -51.8105 | – | – | – | – | 14.1 | 14.1 | – | –
C[C@@H]1O[C@@H](O[C@H]2C[C@@H](O)[C@]3(CO)[C@@H]4[C@@H](O)C[C@]5(C)[C@H](C6=CC(=O)OC6)CC[C@@]5(O)[C@H]4CC[C@@]3(O)C2)[C@H](O)[C@H](O)[C@@H]1O.O.O.O.O.O.O.O.O [Strophantine octahydrate] | – | -95.9071 | – | -89.7119 | – | – | – | – | 0.0891 | 0.0891 | -3.624 | –
CC(C)NCC(O)COc1cccc2ccccc12 (racemic) [(±)-Propranolol hydrochloride] | -2.2 | – | – | – | – | -4.6 | 25.1 | – | 14.1 | 14.1 | – | –
Clc1ccc2c(c1)C(N1CCNCC1)=Nc1ccccc1O2 [Amoxapine] | -2.2 | -60.2873 | – | -56.594 | – | – | – | – | 11.2 | 11.2 | – | –
CNCC[C@H](Oc1ccc(C(F)(F)F)cc1)c1ccccc1 [S-(+)-Fluoxetine hydrochloride] | -2.2 | – | – | – | – | -4.8 | 15.8 | – | 14.1 | 14.1 | – | –
CC(C)c1cc(-c2n[nH]c(=O)n2-c2ccc3c(ccn3C)c2)c(O)cc1O [ganetespib] | – | – | – | – | – | – | – | – | – | – | – | 7.52
CNCCC(Oc1ccc(C(F)(F)F)cc1)c1ccccc1 (stereo not shown) [Fluoxetine hydrochloride] | -2.1 | – | – | – | – | -4.85 | 14.1 | – | 12.6 | 12.6 | – | –
Oc1ccc2c3c1O[C@H]1c4[nH]c5ccccc5c4C[C@@]4(O)[C@@H](C2)N(CC2CC2)CC[C@]314 [Naltrindole hydrochloride] | -2.2 | – | – | – | – | -4.75 | 17.8 | – | 14.1 | 14.1 | – | –
CNCCCC1c2ccccc2C=Cc2ccccc21 [Protriptyline hydrochloride] | – | -59.559 | – | -66.4303 | – | – | – | – | 31.6 | 31.6 | – | –
